The values below come from patent US8815902B2, “Tetrahydroquinoline amide M1 receptor positive allosteric modulators” (Merck Sharp & Dohme Corp., priority 2010, dated 2014).

One assay deals with T1, acetylcholine muscarinic M1 receptor (hM1) (Homo sapiens, UniProt P11229).
T1 construct: expressed in transfected cells; host or cells: CHOnfat cells (CHO, NFAT reporter background), Geneticin-selected; b186 also calls them CHOK1/hM1
T1 sequence (P11229 1-460): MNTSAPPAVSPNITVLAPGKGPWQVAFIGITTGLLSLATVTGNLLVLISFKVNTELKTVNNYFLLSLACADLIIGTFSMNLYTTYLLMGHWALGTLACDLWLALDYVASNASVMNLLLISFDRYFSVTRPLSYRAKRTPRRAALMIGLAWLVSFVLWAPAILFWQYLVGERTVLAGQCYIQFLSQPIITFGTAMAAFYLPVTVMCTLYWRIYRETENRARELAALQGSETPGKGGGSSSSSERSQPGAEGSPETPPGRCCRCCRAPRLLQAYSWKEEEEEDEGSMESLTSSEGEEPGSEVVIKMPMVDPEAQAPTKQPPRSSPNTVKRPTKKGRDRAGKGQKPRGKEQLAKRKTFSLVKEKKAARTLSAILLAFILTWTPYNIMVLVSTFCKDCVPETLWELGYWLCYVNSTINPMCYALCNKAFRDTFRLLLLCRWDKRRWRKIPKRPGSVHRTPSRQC
Kind of assay: muscarinic FLIPR assay: intracellular calcium in CHOnfat/hM1 cells, potentiation of EC20 acetylcholine. The format is cell-based. Conditions: Table 1, EC20 acetylcholine (3 nM final), read-out: H Pot. How it is done: The assay studies the effect of one or several concentrations of test compounds on basal or acetylcholine-stimulated Ca^2+ levels using FLIPR.
Compounds are prepared and subjected to a preincubation period of 4 min. Thereafter, a single EC20 concentration of acetylcholine is added to each well (3 nM final). The intracellular Ca^2+ level of each sample is measured and compared to an acetylcholine control to determine any modulatory activity.
Cells: CHOnfat/hM1, hM2, hM3 or hM4 cells are plated 24 hr before the assay at a density of 18,000 cells/well (100 μL) in a 384 well plate. CHOnfat/hM1 and CHOnfat/hM3 Growth Medium: 90% DMEM (Hi Glucose); 10% HI FBS; 2 mM L-glutamine; 0.1 mM NEAA; Pen-Strep; and 1 mg/ml Geneticin, are added. For M2Gqi5CHOnfat and M4Gqi5CHOnfat cells, an additional 600 ug/ml hygromycin is added.
Equipment: 384 well plate, 120 μL addition plate; 96-well Whatman 2 ml Uniplate Incubator, 37° C., 5% CO2; Skatron EMBLA-384 Plate Washer; Multimek Pipetting System; Genesis Freedom 200 System; Mosquito System; Temo Nanolitre Pipetting System; and FLIPR^384 Fluorometric Imaging Plate Reader System are used.
Buffers. Assay Buffer: Hanks Balanced Salt Solution, with 20 mM Hepes, 2.5 mM Probenecid (Sigma P-8761) first dissolved in 1 N NaOH, 1% Bovine Serum Albumin (Sigma A-9647). Dye Loading Buffer: Assay Buffer plus 1% Fetal Bovine Serum and Fluo-4AM/Pluronic Acid Mixture. 2 mM Fluo-4AM ester stock in DMSO (Molecular Probes F-14202) Concentration of 2 μM in buffer for a final concentration of 1 μM in Assay. 20% Pluronic Acid Solution stock, with concentration of 0.04% in Buffer, 0.02% in Assay.
65 μL of 2 mM Fluo-4AM are mixed with 130 μL of 20% Pluronic Acid. The resulting solution and 650 μL FBS is added to the assay buffer for a total volume of 65 mL. Positive Controls: 4-Br-A23187: 10 mM in DMSO; final concentration 10 μM. Acetylcholine: 10 mM in water, working stock at both 20 μM and 30 μM in assay buffer, final concentration of 10 μM. This is used to check the maximum stimulation of the CHOK1/hM1 cells. 20 μM (2×) acetylcholine is added in the preincubation part of the assay, and the 30 μM (3×) stock is added in the second part. (EC20) Acetylcholine: 10 mM in water, working stock of 9 nM (3×), and final concentration in assay is 3 nM. This is used after the preincubation with test compounds. Addition of the EC20 Acetylcholine to each well with a test compound will ascertain any modulator activity. 24 wells contain 3 nM Acetylcholine alone as a control.
Screening Plate Compounds are titrated in 96-well plates (columns 2-11), 100% DMSO, started at a concentration of 15 mM (150× stock concentration), and 3-fold serial dilutions using Genesis Freedom200 System. Four 96-well plates are combined into a 384-well plate using Mosquito Nanolitre Pipetting System by transferring 1 μl of serial diluted compounds to each well, and 1 mM acetylcholine (100× stock concentration) were added as a control. Using Temo, 49 μl assay buffer is added to each well of the 384-well plate right before assay.
In a 96-well Whatman 2 ml Uniplate, 9 nM Acetylcholine (3×) is pipetted into wells corresponding to the screening compounds, and into control wells. The 30 μM acetylcholine control (3×) is added into control wells, and the 3× agonist plate is transferred into a 384 well plate.
Cells are washed three times with 100 μL of buffer, leaving 30 μL of buffer in each well. Using Multimek, 30 μL of Dye Loading Buffer is added into each well and incubated at 37° C., 5% CO2 for up to one hr.
After 60 min, the cells are washed three times with 100 μL of buffer, leaving 30 μL of buffer in each well. The cell plate, screening plate, and agonist addition plates are placed on the platform in the FLIPR and the door closed. A signal test to check background fluorescence and basal fluorescence signal is performed. Laser intensity is adjusted if necessary. […]
Background: Calcium flux is commonly read through the fluorescence of an indicator in the cells.
Regarding `O=C(N[C@H]1CCCC[C@@H]1O)c1cc(Cc2ccc(Cl)nc2)c2c(n1)CCCC2` [Compound 7], the EC50 was found to be 129 nM. Same read-out and setting: in the case of `COc1ccc(-c2ccc(Cc3cc(C(=O)N[C@H]4CCCC[C@@H]4O)nc4c3CCCC4)cn2)cn1` [Compound 8] it was 18 nM; in that of `O=C(N[C@H]1CCCC[C@@H]1O)c1cc(Cc2ccc(-c3cccnc3)nc2)c2c(n1)CCCC2` [Compound 9], 15 nM; in that of `O=C(N[C@H]1CCCC[C@@H]1O)c1cc(Cc2ccc(-c3ccc(F)nc3)nc2)c2c(n1)CCCC2` [Compound 10], 36 nM. Still for that read-out and setting: under `O=C(N[C@H]1CCCC[C@@H]1O)c1cc(Cc2ccc(-c3ccccc3)nc2)c2c(n1)CCCC2` [Compound 11] stands 26 nM; under `COc1cc(Cc2cc(C(=O)N[C@H]3CCOC[C@@H]3O)nc3c2CCCC3)ccn1` [Compound 12], 120 nM. Still for that read-out and setting: in the case of `O=C(NC1CCOCC1O)c1cc(Cc2ccn3ccnc3c2)c2c(n1)CCCC2` (stereo not drawn) [Compound 13] it was 80 nM. For `O=C(N[C@H]1CCOC[C@@H]1O)c1cc(Cc2ccnc3ccccc23)c2c(n1)CCCC2` [Compound 14], the EC50 stood at 33 nM. On to `O=C(N[C@H]1CCOC[C@@H]1O)c1cc(Cc2cnc3ccccc3c2)c2c(n1)CCCC2` [Compound 15], for which the EC50 stood at 11 nM. Still for that read-out and setting: under `O=C(N[C@H]1CCOC[C@@H]1O)c1cc(Cc2ccc(-c3cccnc3)nc2)c2c(n1)CCCC2` [Compound 16] stands 11 nM. The same measure, in the same setting: in the case of `O=C(N[C@H]1CCOC[C@@H]1O)c1cc(Cc2ccc(-c3ccc(F)nc3)nc2)c2c(n1)CCCC2` [Compound 17] it was 15 nM. Same read-out and setting: in the case of `COc1cncc(-c2ccc(Cc3cc(C(=O)N[C@H]4CCOC[C@@H]4O)nc4c3CCCC4)cn2)c1` [Compound 18] it was 7 nM; in that of `O=C(N[C@H]1CCOC[C@@H]1O)c1cc(Cc2ccc(-c3cncc(F)c3)nc2)c2c(n1)CCCC2` [Compound 19], 23 nM.

As for `Cc1ccc(-c2ccc(Cc3cc(C(=O)N[C@H]4CCOC[C@@H]4O)nc4c3CCCC4)cn2)cn1` [Compound 20], the EC50 was 7 nM. For `Cc1cncc(-c2ccc(Cc3cc(C(=O)N[C@H]4CCOC[C@@H]4O)nc4c3CCCC4)cn2)c1` [Compound 21], the EC50 worked out at 6 nM. On the same count and under the same terms, under `COc1ccc(-c2ccc(Cc3cc(C(=O)N[C@H]4CCOC[C@@H]4O)nc4c3CCCC4)cn2)cn1` [Compound 22] stands 17 nM; under `CC(C)(C)OC(=O)N1CC=C(Cc2cc(C(=O)N[C@H]3CCOC[C@@H]3O)nc3c2CCCC3)CC1` [Compound 23], 620 nM. The same measure, in the same setting: under `CC(=O)N1CCC(Cc2cc(C(=O)N[C@H]3CCOC[C@@H]3O)nc3c2CCCC3)CC1` [Compound 24] stands 2240 nM.

The assay is the same for the next values; noted with them: Table 2, EC20 acetylcholine (3 nM final), read-out: M1 IP (inflection point).
Regarding `O=C(N[C@H]1CCOC[C@@H]1O)c1cc(Cc2ccc(Cl)nc2)c2c(n1)CCCC2` [Example 1, 1,5-Anhydro-3[({4-[(6-chloropyridin-3-yl)methyl]-5,6,7,8-tetrahydroquinolin-2-yl}carbonyl)amino]-2,3-dideoxy-L-threo-pentitol], the EC50 is 102 nM. Same read-out and setting: under `CSc1ccc(Cc2cc(C(=O)N[C@H]3CCCC[C@@H]3O)nc3c2CCCC3)cn1` [Example 2, N-[(1S,2S)-2-Hydroxycyclohexyl]-4-{[6-(methylsulfanyl)pyridin-3-yl]methyl}-5,6,7,8-tetrahydroquinoline-2-carboxamide] stands 88 nM; under `COc1ccc(Cc2cc(C(=O)N[C@H]3CCOC[C@@H]3O)nc3c2CCCC3)cn1` [Example 3, 1,5-Anhydro-2,3-dideoxy-3-[({4-[(6-methoxypyridin-3-yl)methyl]-5,6,7,8-tetrahydroquinolin-2-yl}carbonyl)amino]-L-threo-pentitol], 98 nM. Still for that read-out and setting: in the case of `CC(=O)N1CC=C(Cc2cc(C(=O)N[C@H]3CCOC[C@@H]3O)nc3c2CCCC3)CC1` [Example 4, 3-[{(4-[(1-Acetyl-1,2,3,6-tetrahydropyridin-4-yl)methyl]-5,6,7,8-tetrahydroquinolin-2-yl}carbonyl)amino]-1,5-anhydro-2,3-dideoxy-L-threo-pentitol] it was 654 nM; in that of `Cn1cc(-c2ccc(Cc3cc(C(=O)N[C@H]4CCOC[C@@H]4O)nc4c3CCCC4)cn2)cn1` [Example 5, 1,5-Anhydro-2,3-dideoxy-3-{[(4-{[6-(1-methyl-1H-pyrazol-4-yl)pyridine-3-yl]methyl}-5,6,7,8-tetrahydroquinolin-2-yl)carbonyl}amino]-L-threo-pentitol], 4 nM. The same measure, in the same setting: in the case of `O=C(N[C@H]1CCOC[C@@H]1O)c1cc(Cc2ccc(-c3cnccn3)nc2)c2c(n1)CCCC2` [Example 6, 1,5-Anhydro-2,3-dideoxy-3-{[(4-{[6-(pyrazin-2-yl)pyridine-3-yl]methyl}-5,6,7,8-tetrahydroquinolin-2-yl)carbonyl]amino}-L-threo-pentitol] it was 115 nM.
